Test results: patent US20020142982A1, “Method for regulating angiogenesis” (priority 1999, published 2002)
Where “and” joins values, the source holds several entries; their conditions need not be identical. Identical values can stand only once.

Key:
ERK-2 = ERK-2 immune complex kinase assay in HUVEC; format: cell-based, human; settings: SPP 10-500 nM, 10 minutes, starved HUVEC
Method: As a second functional assay, ERK-2 kinase activity was measured in response to SPP treatment. For these experiments, endothelial cells were starved for 19 hours, and then stimulated with SPP for 10 minutes. Cells were then lysed, and ERK-2 kinase activity was measured by an immune complex kinase assay using myelin basic protein (MBP) as substrate. Some cells were pretreated with pertussis toxin (PTx) at 200 ng/mL, or PD98059 at 10 μM for 2 hours prior to stimulation.

[1] = system: MATRIGEL plugs implanted into athymic mice; test: MATRIGEL implant model of subcutaneous angiogenesis in athymic mice; format: in vivo
Method: To disclose if SPP regulates angiogenesis in vivo, A MATRIGEL implant model of subcutaneous angiogenesis in […] mice was used. In these experiments, female […] mice (4-6 weeks old) were injected subcutaneously with 0.4 mL MATRIGEL (approximate protein concentration 9.9 mg/mL, Collaborative Research) premixed with vehicle (fatty acid-free BSA, 115 μg/mL, Sigma), or FGF-2 (1.3 μg/mL) in the absence or presence of various concentrations of SPP. Seven days later, MATRIGEL plugs were harvested along with underlying skin and the gross angiogenic response was recorded under a Zeiss Stemi SV6 dissecting microscope. For quantification, MATRIGEL plugs were fixed with 4% paraformaldehyde in PBS, dehydrated in ethanol and xylene, embedded in paraffin, and sections subjected to hematoxylin and eosin staining. Angiogenesis was quantified by direct counting of vessels containing red blood cells residing in the stroma interface and the MATRIGEL implant. Each treatment involved 4 mice. 2 random sections from each were quantified and represented as mean±standard deviation. […]
In these experiments, MATRIGEL plugs were fixed, dehydrated, embedded, and sections were subjected to hematoxylin and eosin staining. Angiogenesis was quantified by direct counting of vascular structures as described. Vascular density for each treatment was quantified and represented as mean±standard deviation (n=4). […]

EDG-1 [2] = test: EDG-1 phosphorylation in 32P-labeled HEK293EDG-1 cells; format: cell-based; settings: 100 nM S1P
Method: FIG. 26 is an SDS PAGE showing that S1P treatment induces EDG-1 phosphorylation. HEK293EDG-1 were labeled with [^32P]-orthophosphate, and stimulated with 100 nM S1P for indicated times. Some cultures were treated with 10 μM LY294002.
(§1) To label the EDG-1 receptor in HUVEC and HEK293EDG-1 cells, they were pre-incubated in phosphate-free DMEM (GIBCO-BRL) for 2 hr. Subsequently, cells were labeled with [^32P] orthophosphate (80 μCl/ml) for 3 hr. To examine the effect of P1-3 kinase, cultures were treated with wortmannin (100 nM) or LY294002 (10 μM) during tine last hour of labeling. After SPP stimulation, ^32P-labeled EDG-1 receptor was immunoprecipitated with either chicken anti-EDG-1 1gY or anti-M2, resolved on SDS-PAGE, and visualized by autoradiography.

EDG-1 [3] = test: Phosphorylation of endogenous EDG-1 in 32P-labeled HUVEC; format: cell-based, human; settings: S1P 5-60 min
Method: (Upper panel) Normal HUVEC cells were labelled with [^32P]-orthophosphate, and stimulated with 100 nM S1P for indicated times. Cell extracts were immunoprecipitated with the affinity-purifed anti-EDG-1 IgY, separated on a SDS-PAGE and autoradiographed. (Middle panel) Some cells were treated with 10 μM LY294002 or 100 nM Wortmannin prior to stimulation with S1P and EDG-1 phosphorylation was examined as above. (Lower panel) Some cells were transduced with 100 MOI of wild-type (wt)-Akt, dominant negative (dn)-Akt or the β-gal virus for 12 h prior to stimulation with S1P. EDG-1 phosphorylation was examined as above.
as §1
Chicken anti-human EDG-1 antibodies against human EDG-1 polypeptide expressed in E. coli were raised in Aves Labs, Tigard, Oreg. This antibody specifically detected EDG-1 polypeptide in HUVEC cells and transfected HEK293 cells. […]

EDG-1 [4] = biological target: EDG-1 (Homo sapiens, UniProt P21453); settings: 32P-SPP, HEK293EDG-1 cells; read-out: dissociation constant, Kd, of SPP binding to EDG-1; cited from earlier work
Sequence of EDG-1 (Homo sapiens, UniProt P21453) (P21453 whole entry): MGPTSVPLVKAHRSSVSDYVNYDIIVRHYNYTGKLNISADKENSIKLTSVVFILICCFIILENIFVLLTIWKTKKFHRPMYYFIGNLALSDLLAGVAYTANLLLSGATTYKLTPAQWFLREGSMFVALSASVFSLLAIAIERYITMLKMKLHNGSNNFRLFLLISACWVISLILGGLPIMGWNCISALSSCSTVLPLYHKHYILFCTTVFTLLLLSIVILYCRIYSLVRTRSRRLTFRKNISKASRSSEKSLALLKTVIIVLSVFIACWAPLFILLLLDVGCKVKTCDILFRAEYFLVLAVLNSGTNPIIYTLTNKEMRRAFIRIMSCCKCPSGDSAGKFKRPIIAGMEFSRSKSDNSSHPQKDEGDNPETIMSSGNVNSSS

Question: Which results are given for `CCCCCCCCCCCCC/C=C/[C@@H](O)[C@@H](N)COP(=O)(O)O` [SPP, sphingosine-1-phosphate]?
Answer: ERK activity (ERK-2): activated ERK activity in a dose-dependent manner; angiogenesis with SPP alone ([1]; MATRIGEL plug without FGF-2): did not induce significant angiogenesis; FGF-2 induced angiogenesis (vascular density) ([1]; SPP + FGF-2 1.3 μg/mL in MATRIGEL plug, seven days): dramatically enhanced; phosphorylation of EDG-1 (EDG-1 [2]): induced a time-dependent phosphorylation; radiolabeling of the endogenous EDG-1 polypeptide (EDG-1 [3]): increased; Kd (EDG-1 [4]): 8.1 nM and 8 nM
